Laboratory results from US10030089B2, “Sugar free, statistical copolymers made from at least three monomers” (REGENTS OF THE UNIVERSITY OF MINNESOTA, priority 2013, dated 2018).

Assay: Phenytoin dissolution control
Assay type: physicochemical
Procedure: Probucol and phenytoin concentrations were quantified using a Agilent 1260 Infinity Quaternary HPLC equipped. The HPLC consisted of a reversed-phase EC-C18 column (Poroshell 120, 4.6×50 mm, 2.7 μm, Agilent, USA). The mobile phase was acetonitrile:water 96:4 for probucol and acetonitrile:water 40:60 for phenytoin, and the flow rate was 1.0 mL/min. A 10 μL aliquot of sample was injected, and the column effluent was detected at 241 nm for probucol (eluted at 2.90 min) and 225 nm for phenytoin (eluted at 1.40 min) with a UV detector (1260 Infinity Multiple Wavelength Detector, Agilent). The standard curve linearity was verified from 0.1 to 1000 μg/mL with an r^2 value of at least 0.999.

SMILES: O=C1NC(=O)C(c2ccccc2)(c2ccccc2)N1 [Phenytoin, phenytoin]
- Concentration (Time (s) 0): 0 ng/mL
- Concentration (Time (s) 4): 38000 ng/mL
- Concentration (Time (s) 10): 46000 ng/mL
- Concentration (Time (s) 20): 45000 ng/mL
- Concentration (Time (s) 40): 48000 ng/mL
- Concentration (Time (s) 90): 51000 ng/mL
- Concentration (Time (s) 180): 45000 ng/mL
- Concentration (Time (s) 360): 48000 ng/mL
